According to ChEMBL document CHEMBL1127784, “Design and synthesis of peptidomimetic inhibitors of HIV-1 protease and renin. Evidence for improved transport” (J Med Chem, 1994):

Experiments:
[1] = target: Human immunodeficiency virus type 1 protease (Human immunodeficiency virus 1) (UniProt Q72874); experiment: Tested for the relative potency against HIV-1 protease in the cellular antiviral assay
[2] = target: Human immunodeficiency virus type 1 protease (Human immunodeficiency virus 1, UniProt Q72874); experiment: In vitro inhibitory concentration against HIV-1 protease
Renin = target: T1, Renin (Homo sapiens, UniProt P00797); experiment: In vitro inhibitory concentration against renin
T1 sequence (P00797 whole entry): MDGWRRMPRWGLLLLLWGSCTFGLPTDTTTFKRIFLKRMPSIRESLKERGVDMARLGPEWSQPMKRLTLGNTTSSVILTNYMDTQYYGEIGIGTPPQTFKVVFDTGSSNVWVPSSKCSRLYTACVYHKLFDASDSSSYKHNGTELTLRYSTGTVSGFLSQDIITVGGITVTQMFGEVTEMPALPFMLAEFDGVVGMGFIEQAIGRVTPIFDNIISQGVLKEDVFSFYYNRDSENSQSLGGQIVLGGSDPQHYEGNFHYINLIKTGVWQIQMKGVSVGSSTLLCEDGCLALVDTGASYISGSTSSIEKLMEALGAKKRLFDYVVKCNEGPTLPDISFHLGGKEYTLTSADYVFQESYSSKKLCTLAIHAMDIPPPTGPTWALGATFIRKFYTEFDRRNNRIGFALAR

SMILES	IC95 [1] [µM]	IC50 [2] [µM]	IC50 (Renin) [µM]
CC(C)C[C@@]1(C2=C(O)[C@](Cc3ccccc3)(C[C@H](O)[C@H](Cc3ccccc3)NC(=O)OC(C)(C)C)N=C2)N=CC([C@@H](Cc2ccccc2)C(N)=O)=C1O	1.5	0.01	
CC(C)C[C@@]1(C2=C(O)[C@](Cc3ccccc3)(C[C@H](O)[C@H](Cc3ccccc3)NC(=O)O[C@@H]3CCOC3)N=C2)N=CC([C@@H](Cc2ccccc2)C(N)=O)=C1O	0.8	0.0013	
CC(C)C[C@H](NC(=O)[C@H](Cc1ccccc1)C[C@H](O)[C@H](Cc1ccccc1)NC(=O)OC(C)(C)C)C(=O)N[C@@H](Cc1ccccc1)C(N)=O	6		

Further lines, results first:

IC95 [1] [µM]	IC50 [2] [µM]	IC50 (Renin) [µM]	SMILES
		0.6	CC(C)C[C@@H](C(=O)N[C@@H](CC1CCCCC1)[C@@H](O)[C@@H](O)CC(C)C)C1=C(O)[C@@](CC(=O)N2CCOCC2)(Cc2ccccc2)N=C1
		18	CC(C)C[C@H](O)[C@H](O)[C@H](CC1CCCCC1)C1=C(O)[C@](CC(C)C)(C2=C(O)[C@@](CC(=O)N3CCOCC3)(Cc3ccccc3)N=C2)N=C1
